Test results reported in US4755523A, “Abietamide derivatives” (Nippon Shinyaku Co., Ltd., priority 1986, dated 1988).

Legend:
[1] = system: Triton-induced hyperlipemic mice (serum total cholesterol); assay: Effect in Triton-induced hyperlipemic mice (Triton test), inhibiting rate against serum total cholesterol increase; type: in vivo, Male ICR-strain mice; conditions: Triton WR-1339 500 mg/kg i.v., test compound 300 mg/kg oral, serum TC after 24 hours, ** significant at 1% level
Description: Test method: Male ICR-strain mice of 9 weeks age (6 to 9 mice per group) were used. A solution of Triton WR-1339 in physiological saline solution was injected from tail vein at the dose of 500 mg/kg whereupon hyperlipemia was induced. Physiological saline solution was injected to normal group intravenously. Immediately thereafter, 300 mg/kg of the test compound suspended in 0.5% methylcellulose (MC) was given orally. The group given with 0.5% MC solution was called a control group. After fasting for 24 hours, head was cut, blood was taken, and the TC value of the resulting serum was measured. The inhibiting rate (%) against serum TC increase of the test compound was calculated by the following expression: [formula]

[2] = system: cholesterol loaded rats (serum total cholesterol); assay: Effect in cholesterol loaded rats (HCD test), serum total cholesterol increase-inhibiting rate; type: in vivo, Male Wister strain rats; conditions: high-cholesterol food containing 0.03% of test compound, 3 days, serum TC, ** significant at 1% level
Description: Test method: Male Wister strain rats of 4 weeks age (six rats per group) were used. They were fed with a high-cholesterol food containing 0.03% of the compound to be tested. After 3 days' feeding, they were fasted overnight, blood was collected therefrom, and the total cholesterol level (TC) in serum was measured. A group fed with a high cholesterol food containing no test compound and groups fed with normal synthetic food were called control group and normal groups, respectively. The serum TC increase-inhibiting rate (%) of the test compound was calculated by the following expression: [formula]

[3] = system: absorption of extrinsic cholesterol from the intestinal tract; conditions: Japanese Laid Open Application Sho-51/026864; cited from earlier work
[4] = system: biosynthesis of cholesterol; conditions: Japanese Laid Open Application Sho-51/026864; cited from earlier work

Compound	Inhibitory Rate for Cholesterol Increase (Triton Test) [1]	Inhibitory Rate for Cholesterol Increase (HCD Test) [2]	inhibition of absorption of extrinsic cholesterol from the intestinal tract [3]	inhibition of the biosynthesis of cholesterol [4]
CC(C)C1CCC2=C(CCC3C(C)(C(=O)Nc4ccnn4-c4ccccc4)CCCC23C)C1 (stereo not shown) [Example 1, N-(1-phenylpyrazol-5-yl)-Δ^8-dihydroabietamide]	32%	115%	–	–
Cc1csc(NC(=O)C2(C)CCCC3(C)C4=C(CCC23)CC(C(C)C)CC4)n1 (stereo not shown) [Example 4, N-(4-Methylthiazol-2-yl)-Δ^8-dihydroabietamide]	68%	102%	–	–
Cc1cccc(C)c1NC(=O)C1(C)CCCC2(C)C3=C(CCC12)CC(C(C)C)CC3 (stereo not shown) [N--(2,6-Dimethylphenyl)-Δ^8-dihydroabietamide, reference compound]	-8%	100%	inhibit absorption of extrinsic cholesterol from the intestinal tract	do not inhibit the biosynthesis of cholesterol
CC(C)C1CCC2=C(CCC3C(C)(C(=O)Nc4nccs4)CCCC23C)C1 (stereo not shown) [Example 3, N-(Thiazol-2-yl)-Δ^8-dihydroabietamide]	75%	47%	–	–
